≈ marks a conversion by molar mass, not a printed value.
Assays:
Test in all cases: Agar dilution method microbicidal test
Format in all cases: cell-based
[1] = test system: Candida sp. As to Growth on agar plate: key: +: grew; −: did not grow.
Protocol: (§1) As microbicidal test method for trans-p-coumaric acid, 3-hydroxypyridine, p-hydroxybenzaldehyde and vanillin, the agar dilution method was employed.
(§2) In agar dilution method, a solution in which a sample is dissolved is serially diluted several times, and each of the diluted sample solutions is mixed with agar medium to prepare plate agars having various sample concentration. Then bacteria is inoculated onto the plate agars. In cases where the sample has a microbicidal activity, the growth of the bacteria on the plates can be inhibited. The lowest concentration which can inhibit the growth of the bacteria is referred to as Minimum Inhibitory Concentration (MIC), thereby judging the degree of a microbicidal activity of the sample.
(§3) First, 400 mg of sample was dissolved in 1 mL of DMSO to prepare 400 mg/mL sample solution. Then 0.5 mL of this 400 mg/mL sample solution was diluted 2-fold to prepare 200 mg/mL sample solution. In the same manner, sample solutions of 100 mg/mL, 50.0 mg/mL, and 25.0 mg/mL were prepared. In addition, 300 mg/mL sample solution was prepared. Thereafter, 0.2 mL of these sample solutions each was mixed with 19.8 mL of BHI (Brain Heart Infusion Agar, Becton Dickinson, MD) medium, thereby preparing agar plates having the sample concentration of 4.0 mg/mL, 3.0 mg/mL, 2.0 mg/mL, 1.0 mg/mL, 0.5 mg/mL, and 0.25 mg/mL in dishes. […] Sterilized water was used for dissolving catechin, because catechin was insoluble in DMSO.
(§4) As test bacteria, 13 kinds of bacteria, i.e., Streptococcus pneumoniae, Streptococcus pyogenes, Enterococcus faecalis, Staphylococcus aureus, Escherichia coli, Salmonella sp., Yersinia enterocolitica, Vibrio parahaemolyticus, Pseudomonas aeruginosa, Bacillus cereus, Bacillus subtilis MB-32, Bacillus subtilis ATCC6633, and Candida sp., were used. These bacteria each was mixed with 2 mL of sterilized MHB^R liquid medium (Mueller Hinton Broth^R, Becton Dickinson, MD) to prepare bacterial suspension having turbidity 1 (bacterial concentration 10^8/mL). Previously, small test tubes were set into each cell of a grating and sterilized, and 1 mL of 13 bacterial suspensions were added into the small test tubes set in the grating, respectively. By using a microplanter (SAKUMA, model: MIT-P), 10 μL aliquot was collected from each test tube set in the grating and transferred to other test tube, and the transferred bacterial suspensions were diluted 100-fold (bacterial concentration 10^6/mL).
(§5) By using the microplanter, 10 μL (bacterial number […]) of this bacterial suspension was inoculated onto the plates containing the sample solution of various concentrations. The plates were incubated for 18 hours in an incubator at 37° C., and then a microbicidal activity of each compound was assessed.

[2] = test system: Streptococcus pneumoniae; as to Growth on agar plate: key: +: grew; −: did not grow
Protocol: as §1, §2, §3, §4, §5

[3] = test system: Streptococcus pyogenes; as to Growth on agar plate: key: +: grew; −: did not grow
Protocol: as §1, §2, §3, §4, §5

[4] = test system: Pseudomonas aeruginosa; as to Growth on agar plate: key: +: grew; −: did not grow
Protocol: as §1, §2, §3, §4, §5

[5] = test system: Yersinia enterocolitica; as to Growth on agar plate: key: +: grew; −: did not grow
Protocol: as §1, §2, §3, §4, §5

[6] = test system: Bacillus cereus; as to Growth on agar plate: key: +: grew; −: did not grow
Protocol: as §1, §2, §3, §4, §5

[7] = test system: Bacillus subtilis ATCC6633; as to Growth on agar plate: key: +: grew; −: did not grow
Protocol: as §1, §2, §3, §4, §5

[8] = test system: Enterococcus faecalis; also: key: +: grew; −: did not grow
Protocol: as §1, §2, §3, §4, §5

[9] = test system: Vibrio parahaemolyticus; as to Growth on agar plate: key: +: grew; −: did not grow
Protocol: as §1, §2, §3, §4, §5

[10] = test system: Bacillus subtilis MB-32; as to Growth on agar plate: key: +: grew; −: did not grow
Protocol: as §1, §2, §3, §4, §5

[11] = test system: Escherichia coli; as to Growth on agar plate: key: +: grew; −: did not grow
Protocol: as §1, §2, §3, §4, §5

[12] = test system: Salmonella sp. As to Growth on agar plate: key: +: grew; −: did not grow.
Protocol: as §1, §2, §3, §4, §5

[13] = test system: Staphylococcus aureus; as to Growth on agar plate: key: +: grew; −: did not grow
Protocol: as §1, §2, §3, §4, §5

[14] = BHI agar, 37° C., 18 hours, read-out: MIC

O=Cc1ccc(O)cc1 [p-Hydroxybenzaldehyde, p-hydroxybenzaldehyde]
activity (in words) [1]: had an activity
Growth on agar plate ([1]; 0.25 mg/mL): +
Growth on agar plate ([1]; 0.5 mg/mL): +
Growth on agar plate ([1]; 1.0 mg/mL): +
Growth on agar plate ([1]; 2.0 mg/mL): +
Growth on agar plate ([1]; 3.0 mg/mL): −
Growth on agar plate ([1]; 4.0 mg/mL): −
MIC [1, 14]: 3000 µg/mL (≈ 24.6 mM)
activity (in words) [2]: had an activity
Growth on agar plate ([2]; 0.25 mg/mL): +
Growth on agar plate ([2]; 0.5 mg/mL): +
Growth on agar plate ([2]; 1.0 mg/mL): +
Growth on agar plate ([2]; 2.0 mg/mL): −
Growth on agar plate ([2]; 3.0 mg/mL): −
Growth on agar plate ([2]; 4.0 mg/mL): −
MIC [2, 14]: 2000 µg/mL (≈ 16.4 mM)
activity (in words) [3]: had an activity
Growth on agar plate ([3]; 0.25 mg/mL): +
Growth on agar plate ([3]; 0.5 mg/mL): +
Growth on agar plate ([3]; 1.0 mg/mL): +
Growth on agar plate ([3]; 2.0 mg/mL): −
Growth on agar plate ([3]; 3.0 mg/mL): −
Growth on agar plate ([3]; 4.0 mg/mL): −
MIC [3, 14]: 2000 µg/mL (≈ 16.4 mM)
activity (in words) [4]: had an activity
Growth on agar plate ([4]; 0.25 mg/mL): +
Growth on agar plate ([4]; 0.5 mg/mL): +
Growth on agar plate ([4]; 1.0 mg/mL): +
Growth on agar plate ([4]; 2.0 mg/mL): −
Growth on agar plate ([4]; 3.0 mg/mL): −
Growth on agar plate ([4]; 4.0 mg/mL): −
MIC [4, 14]: 2000 µg/mL (≈ 16.4 mM)
activity (in words) [5]: strong microbicidal activity
Growth on agar plate ([5]; 0.25 mg/mL): +
Growth on agar plate ([5]; 0.5 mg/mL): −
Growth on agar plate ([5]; 1.0 mg/mL): −
Growth on agar plate ([5]; 2.0 mg/mL): −
Growth on agar plate ([5]; 3.0 mg/mL): −
Growth on agar plate ([5]; 4.0 mg/mL): −
MIC [5, 14]: 500 µg/mL (≈ 4.09 mM)
activity (in words) [6]: had an activity
Growth on agar plate ([6]; 0.25 mg/mL): +
Growth on agar plate ([6]; 0.5 mg/mL): +
Growth on agar plate ([6]; 1.0 mg/mL): +
Growth on agar plate ([6]; 2.0 mg/mL): +
Growth on agar plate ([6]; 3.0 mg/mL): −
Growth on agar plate ([6]; 4.0 mg/mL): −
MIC [6, 14]: 3000 µg/mL (≈ 24.6 mM)
MIC ([7]; ATCC6633, Bacillus subtilis ATCC 6633, BHI agar, 37° C., 18 hours, read-out: MIC): 3000 µg/mL (≈ 24.6 mM)
activity (in words) ([7]; Bacillus subtilis ATCC6633): had an activity
Growth on agar plate ([7]; Bacillus subtilis ATCC 6633, 0.25 mg/mL): +
Growth on agar plate ([7]; Bacillus subtilis ATCC 6633, 0.5 mg/mL): +
Growth on agar plate ([7]; Bacillus subtilis ATCC 6633, 1.0 mg/mL): +
Growth on agar plate ([7]; Bacillus subtilis ATCC 6633, 2.0 mg/mL): +
Growth on agar plate ([7]; Bacillus subtilis ATCC 6633, 3.0 mg/mL): −
Growth on agar plate ([7]; Bacillus subtilis ATCC 6633, 4.0 mg/mL): −
Growth on agar plate ([8]; 0.25 mg/mL): +
Growth on agar plate ([8]; 0.5 mg/mL): +
Growth on agar plate ([8]; 1.0 mg/mL): +
Growth on agar plate ([8]; 2.0 mg/mL): +
Growth on agar plate ([8]; 3.0 mg/mL): +
Growth on agar plate ([8]; 4.0 mg/mL): +
activity (in words) [9]: had an activity
Growth on agar plate ([9]; 0.25 mg/mL): +
Growth on agar plate ([9]; 0.5 mg/mL): +
Growth on agar plate ([9]; 1.0 mg/mL): +
Growth on agar plate ([9]; 2.0 mg/mL): −
Growth on agar plate ([9]; 3.0 mg/mL): −
Growth on agar plate ([9]; 4.0 mg/mL): −
MIC [9, 14]: 2000 µg/mL (≈ 16.4 mM)
activity (in words) [10]: had an activity
Growth on agar plate ([10]; 0.25 mg/mL): +
Growth on agar plate ([10]; 0.5 mg/mL): +
Growth on agar plate ([10]; 1.0 mg/mL): +
Growth on agar plate ([10]; 2.0 mg/mL): +
Growth on agar plate ([10]; 3.0 mg/mL): +
Growth on agar plate ([10]; 4.0 mg/mL): −
MIC ([10]; MB32, BHI agar, 37° C., 18 hours, read-out: MIC): 3000 µg/mL (≈ 24.6 mM)
activity (in words) [11]: had an activity
Growth on agar plate ([11]; 0.25 mg/mL): +
Growth on agar plate ([11]; 0.5 mg/mL): +
Growth on agar plate ([11]; 1.0 mg/mL): +
Growth on agar plate ([11]; 2.0 mg/mL): −
Growth on agar plate ([11]; 3.0 mg/mL): −
Growth on agar plate ([11]; 4.0 mg/mL): −
MIC [11, 14]: 2000 µg/mL (≈ 16.4 mM)
activity (in words) [12]: had an activity
Growth on agar plate ([12]; 0.25 mg/mL): +
Growth on agar plate ([12]; 0.5 mg/mL): +
Growth on agar plate ([12]; 1.0 mg/mL): +
Growth on agar plate ([12]; 2.0 mg/mL): −
Growth on agar plate ([12]; 3.0 mg/mL): −
Growth on agar plate ([12]; 4.0 mg/mL): −
MIC [12, 14]: 2000 µg/mL (≈ 16.4 mM)
activity (in words) [13]: had an activity
Growth on agar plate ([13]; 0.25 mg/mL): +
Growth on agar plate ([13]; 0.5 mg/mL): +
Growth on agar plate ([13]; 1.0 mg/mL): +
Growth on agar plate ([13]; 2.0 mg/mL): +
Growth on agar plate ([13]; 3.0 mg/mL): −
Growth on agar plate ([13]; 4.0 mg/mL): −
MIC [13, 14]: 3000 µg/mL (≈ 24.6 mM)

Source: US20100190846A1, “MICROBICIDAL AGENT AND MICROBICIDAL COMPOSITION” (priority 2006, published 2010)
